Conditions: room temperature

In the case of risperidone tartrate, the solubility (aqueous media) was “about 80 mg/ml” and the “solubility relative to risperidone hydrochloride” value was “about 4 times”.

Reference: USRE39181E1, “Aqueous risperidone formulations” (priority 1994, dated 2006)
